In patent US11572350B1, “Benzothia(di)azepine compounds and their use as bile acid modulators” (Albireo AB, priority 2020, dated 2023):

How the values were obtained:
[1] = target: T1, human IBAT (Homo sapiens, UniProt Q12908); assay: IBAT (h/m) assay: 3H-taurocholic acid uptake in human IBAT-overexpressing cells; assay type: cell-based; conditions: 0.25 μM 3H-taurocholic acid and 5 μM cold taurocholic acid, 20 minutes, highest test concentration 10 μM, read-out: hIBAT IC50
T1 construct: expressed in transfected cells; kept under Puromycin selection
T1 sequence (Q12908 1-348): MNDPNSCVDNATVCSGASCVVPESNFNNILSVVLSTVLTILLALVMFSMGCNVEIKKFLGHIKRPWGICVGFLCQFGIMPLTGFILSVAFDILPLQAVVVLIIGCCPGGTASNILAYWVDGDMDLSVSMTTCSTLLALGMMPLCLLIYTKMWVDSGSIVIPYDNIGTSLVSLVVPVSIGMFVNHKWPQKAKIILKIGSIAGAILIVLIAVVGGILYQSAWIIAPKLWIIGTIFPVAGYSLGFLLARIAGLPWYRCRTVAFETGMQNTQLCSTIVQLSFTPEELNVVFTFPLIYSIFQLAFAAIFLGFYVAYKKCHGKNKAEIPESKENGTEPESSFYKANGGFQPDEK
Description: IBAT (h/m) Assay Protocol
10,000 cells (Human or Mouse IBAT-overexpressing cells) were seeded in 96-wells plate (Corning CLS3809) in 200 μL MEM-alpha medium (Gibco 12571-063) supplemented with 10% FBS (Gibco 10438026) containing Puromycin (Gibco A1113803) (10 μg/mL) and incubated at 37° C. in 5% CO2 for 48 hours. After incubation, media was decanted from the wells and cells were washed two times with 300 μL of basal MEM-alpha medium (FBS-free). After decanting basal MEM-alpha medium each time, plates were tapped against paper towel to ensure maximum removal of residual media. Test inhibitor dilutions (highest test concentration being 10 μM, 3-fold serial dilution, 10 points) prepared in DMSO (Sigma D2650) were added in incubation mix (maintaining 0.2% final DMSO concentration) containing 0.25 μM 3H-taurocholic acid (ARC ART-1368) and 5 μM of cold taurocholic acid (Sigma T4009). 50 μL of incubation mix containing test inhibitors was then added to the wells (in duplicate) and the plates were incubated for 20 minutes in a CO2 incubator at 37° C. After incubation, the reaction was stopped by keeping the plates on ice water mix for 2-3 minutes and then the incubation mix was aspirated completely from the wells. The wells were washed two times with 250 μL of chilled unlabelled 1 mM taurocholic acid dissolved in HEPES (Gibco 15630080)-buffered (10 mM) HBSS (Gibco 14175079) (pH 7.4). The plates were tapped against a paper towel after every wash to ensure maximum removal of blocking buffer.
(§1) 100 μL of MicroScint-20 (PerkinElmer 6013621) was added to the wells and kept overnight at room temperature before reading the plates in TopCount NXT™ Microplate Scintillation and Luminescence Counter from PerkinElmer under 3H Test protocol (set at 120 seconds reading time per well).
(§2) Preparation of Test Compound Dilutions
(§3) All test compounds were provided in powder form at room temperature. 10 mM DMSO stocks of the test compounds were prepared, aliquoted and stored at −20° C. From the 10 mM DMSO stock of the compounds, a 3-fold serial dilution in DMSO was prepared to get a total of 10 dilutions of the test compounds. 0.5 μL of this dilution in DMSO was added to 250 μL of FBS-free basal media containing 3H-taurocholic acid and cold taurocholic acid to prepare the incubation mixture.

[2] = target: T2, human LBAT (Homo sapiens, UniProt Q14973); assay: LBAT (h/m) assay: 3H-taurocholic acid uptake in human LBAT-overexpressing cells; assay type: cell-based; conditions: 0.3 μM 3H-taurocholic acid and 7.5 μM cold taurocholic acid, 20 minutes, read-out: hLBAT IC50
T2 construct: expressed in transfected cells; kept under Geneticin selection
T2 sequence (Q14973 1-349): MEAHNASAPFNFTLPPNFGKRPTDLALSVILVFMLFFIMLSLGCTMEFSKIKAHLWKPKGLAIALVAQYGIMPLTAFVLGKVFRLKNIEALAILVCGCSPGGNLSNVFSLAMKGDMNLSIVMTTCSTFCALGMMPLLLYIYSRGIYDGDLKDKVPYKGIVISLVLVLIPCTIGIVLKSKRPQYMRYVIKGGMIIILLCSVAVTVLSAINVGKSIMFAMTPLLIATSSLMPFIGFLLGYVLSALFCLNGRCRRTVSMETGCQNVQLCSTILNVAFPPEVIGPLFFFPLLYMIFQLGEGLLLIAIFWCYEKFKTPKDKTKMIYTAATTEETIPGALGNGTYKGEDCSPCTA
Description: LBAT (h/m) Assay Protocol
20,000 cells (Human or Mouse LBAT-overexpressing cells) were seeded in 96-wells plate (Corning CLS3809) in 100 μL MEM-alpha medium (Gibco 12571-063) supplemented with 10% FBS (Gibco 10438026) containing Geneticin (Gibco 10131-027) (1 mg/mL) and incubated at 37° C. in 5% CO2 for 24 hours. After incubation, media was decanted from the wells and cells were washed two times with 300 μL of basal MEM-alpha medium (FBS-free). After decanting basal MEM-alpha medium each time, plates were tapped against paper towel to ensure maximum removal of residual media. For human LBAT, incubation mix was prepared by adding test inhibitor dilutions (3-fold serial dilution in DMSO (Sigma D2650), 10 points) in MEM-alpha (without FBS) containing 0.3 μM 3H-taurocholic acid (ARC ART-1368) and 7.5 μM cold taurocholic acid (Sigma T4009) (maintaining 0.2% final DMSO concentration). For mouse LBAT, incubation mix was prepared by adding test inhibitor dilutions (3-fold serial dilution in DMSO, 10 points) in MEM-alpha (without FBS) containing 0.3 μM 3H-taurocholic acid and 25 μM cold taurocholic acid maintaining 0.2% final DMSO concentration). 50 μL of incubation mix containing test inhibitors was then added to the wells (in duplicate) and the plates were incubated for 20 minutes in a CO2 incubator at 37° C. After incubation, the reaction was stopped by keeping the plates on ice water mix for 2-3 minutes and then the incubation mix was aspirated completely from the wells. The wells were washed two times with 250 μL of chilled unlabelled 1 mM taurocholic acid dissolved in HEPES (Gibco 15630080)-buffered (10 mM) HBSS (Gibco 14175079) (pH 7.4). The plates were tapped against a paper towel after every wash to ensure maximum removal of blocking buffer.
as §1, with “well, with normal plate orientation).” for “well).”
as §2, §3

[3] = Bidirectional permeability assay (Caco-2 cells); assay type: in vitro ADME; conditions: human, FaSSIF donor buffer, 120 minutes at 37° C.
Source text: Bidirectional Permeability Assay (Caco-2 Cells)
HepaRG-Based Assay Protocol

SMILES | IC50 [1] | IC50 [2] | Papp A→B at 120 min, 10 µM ([3]; Caco-2, pH 7.4, absorptive direction (A2B)) | Papp B→A at 120 min, 10 µM ([3]; Caco-2, pH 7.4, secretory direction (B2A))
CCCCC1CN(c2ccccc2)c2cc(SCC)c(O/C=C/C(=O)O)cc2S(=O)(=O)N1 (racemic) [Example 4, (E)-3-((3-Butyl-7-(ethylthio)-1,1-dioxido-5-phenyl-2,3,4,5-tetrahydro-1,2,5-benzothiadiazepin-8-yl)oxy)acrylic acid] | > 10000 nM | 3.4 nM | – | –
CCCCC1CN(c2ccccc2)c2cc(SCC)c(O/C=C(\F)C(=O)O)cc2S(=O)(=O)N1C (racemic) [Example 24, (Z)-3-((3-butyl-7-(ethylthio)-2-methyl-1,1-dioxido-5-phenyl-2,3,4,5-tetrahydro-1,2,5-benzothiadiazepin-8-yl)oxy)-2-fluoroacrylic acid] | 1790 nM | 1.3 nM | – | –
CCCCC1CN(c2ccc(F)cc2)c2cc(SC)c(O/C=C(\F)C(=O)O)cc2S(=O)(=O)N1 (racemic) [Example 27, (Z)-3-((3-butyl-5-(4-fluorophenyl)-7-(methylthio)-1,1-dioxido-2,3,4,5-tetrahydro-1,2,5-benzothiadiazepin-8-yl)oxy)-2-fluoroacrylic acid] | 481 nM | 13 nM | – | –
CCCCC1CN(c2ccc(F)cc2)c2cc(SC)c(O/C=C/C(=O)O)cc2S(=O)(=O)N1 (single isomer, unassigned) [Example 2, (E)-3-((3-butyl-5-(4-fluorophenyl)-7-(methylthio)-1,1-dioxido-2,3,4,5-tetrahydro-1,2,5-benzothiadiazepin-8-yl)oxy)acrylic acid] | > 10000 nM | 278 nM | – | –
CCCCC1CN(c2ccccc2)c2cc(SCC)c(O/C=C/C(=O)O)cc2S(=O)(=O)N1 (single isomer, unassigned) [Example 5, (E)-3-((3-butyl-7-(ethylthio)-1,1-dioxido-5-phenyl-2,3,4,5-tetrahydro-1,2,5-benzothiadiazepin-8-yl)oxy)acrylic acid] | 8810 nM | 3.4 nM | – | –
CCCCC1CN(c2ccc(F)cc2)c2cc(SCC)c(O/C=C/C(=O)O)cc2S(=O)(=O)C1 (single isomer, unassigned) [Example 8, (E)-3-((3-butyl-7-(ethylthio)-5-(4-fluorophenyl)-1,1-dioxido-2,3,4,5-tetrahydro-1,5-benzothiazepin-8-yl)oxy)acrylic acid] | > 10000 nM | > 333 nM | – | –
CCCCC1CN(c2ccc(F)cc2)c2cc(SCC)c(O/C=C/C(=O)O)cc2S(=O)(=O)C1 (single isomer, unassigned) [Example 9, (E)-3-((3-butyl-7-(ethylthio)-5-(4-fluorophenyl)-1,1-dioxido-2,3,4,5-tetrahydro-1,5-benzothiazepin-8-yl)oxy)acrylic acid] | – | 2 nM | 15.5 ×10⁻⁶ cm/s | 18.6 ×10⁻⁶ cm/s
CCCCC1CN(c2ccc(F)cc2)c2cc(SC)c(O/C=C(\F)C(=O)O)cc2S(=O)(=O)C1 (single isomer, unassigned) [Example 11, (Z)-3-((3-butyl-5-(4-fluorophenyl)-7-(methylthio)-1,1-dioxido-2,3,4,5-tetrahydro-1,5-benzothiazepin-8-yl)oxy)-2-fluoroacrylic acid] | 519 nM | 0.9 nM | – | –
CCCCC1CN(c2ccc(F)cc2)c2cc(SC)c(O/C=C(\F)C(=O)O)cc2S(=O)(=O)C1 (single isomer, unassigned) [Example 12, (Z)-3-((3-butyl-5-(4-fluorophenyl)-7-(methylthio)-1,1-dioxido-2,3,4,5-tetrahydro-1,5-benzothiazepin-8-yl)oxy)-2-fluoroacrylic acid] | 1420 nM | 15 nM | – | –
CCCCC1CN(c2ccccc2)c2cc(SCC)c(O/C=C(\F)C(=O)O)cc2S(=O)(=O)C1 (single isomer, unassigned) [Example 14, (Z)-3-((3-butyl-7-(ethylthio)-1,1-dioxido-5-phenyl-2,3,4,5-tetrahydro-1,5-benzothiazepin-8-yl)oxy)-2-fluoroacrylic acid] | > 10000 nM | 21 nM | – | –
CCCCC1CN(c2ccc(F)cc2)c2cc(SCC)c(O/C=C(\F)C(=O)O)cc2S(=O)(=O)C1 (single isomer, unassigned) [Example 17, (Z)-3-((3-butyl-7-(ethylthio)-5-(4-fluorophenyl)-1,1-dioxido-2,3,4,5-tetrahydro-1,5-benzothiazepin-8-yl)oxy)-2-fluoroacrylic acid] | > 3330 nM | 5.5 nM | – | –
CCCCC1CN(c2ccc(F)cc2)c2cc(SC)c(O/C=C(\F)C(=O)O)cc2S(=O)(=O)N1C (single isomer, unassigned) [Example 21, (Z)-3-((3-butyl-5-(4-fluorophenyl)-2-methyl-7-(methylthio)-1,1-dioxido-2,3,4,5-tetrahydro-1,2,5-benzothiadiazepin-8-yl)oxy)-2-fluoroacrylic acid] | > 3330 nM | 10.1 nM | – | –
CCCCC1CN(c2ccc(F)cc2)c2cc(SCC)c(O/C=C(\F)C(=O)O)cc2S(=O)(=O)N1C (single isomer, unassigned) [Example 23, (Z)-3-((3-butyl-7-(ethylthio)-5-(4-fluorophenyl)-2-methyl-1,1-dioxido-2,3,4,5-tetrahydro-1,2,5-benzothiadiazepin-8-yl)oxy)-2-fluoroacrylic acid] | > 3330 nM | 70 nM | – | –
CCCCC1CN(c2ccccc2)c2cc(SCC)c(O/C=C(\F)C(=O)O)cc2S(=O)(=O)N1C (single isomer, unassigned) [Example 26, (Z)-3-((3-butyl-7-(ethylthio)-2-methyl-1,1-dioxido-5-phenyl-2,3,4,5-tetrahydro-1,2,5-benzothiadiazepin-8-yl)oxy)-2-fluoroacrylic acid] | 1130 nM | 131 nM | – | –
